Test results as given in PubChem BioAssay (NCI).
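Five compound concentrations were applied to cells in 96-well plates for 48 hours; endpoints were derived by simple linear interpolation of the resulting dose-response curve. GI50 marks 50% less growth. TGI: total growth inhibition.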

Tests used:
Assay in all cases: growth of human tumour cells (NCI), 48 h; in the data active = GI50 below about 0.43 µM; inactive = the rest
HL-60(TB) leukemia = tested on: HL-60(TB) leukemia
RXF 393 renal = tested on: RXF 393 renal
SK-MEL-2 melanoma = tested on: SK-MEL-2 melanoma
OVCAR-8 ovarian = tested on: OVCAR-8 ovarian
TK-10 renal = tested on: TK-10 renal
MCF7 breast = tested on: MCF7 breast
COLO 205 colon = tested on: COLO 205 colon
HCC-2998 colon = tested on: HCC-2998 colon
SNB-19 CNS = tested on: SNB-19 CNS
HS 578T breast = tested on: HS 578T breast
K-562 leukemia = tested on: K-562 leukemia
ACHN renal = tested on: ACHN renal
SNB-75 CNS = tested on: SNB-75 CNS
T-47D breast = tested on: T-47D breast
SN12C renal = tested on: SN12C renal
SK-OV-3 ovarian = tested on: SK-OV-3 ovarian
HCT-116 colon = tested on: HCT-116 colon
NCI-H460 lung = tested on: NCI-H460 lung
SK-MEL-28 melanoma = tested on: SK-MEL-28 melanoma
CCRF-CEM leukemia = tested on: CCRF-CEM leukemia
MDA-N = tested on: MDA-N
HOP-92 NSCLC = tested on: HOP-92 NSCLC
SF-268 CNS = tested on: SF-268 CNS
SR leukemia = tested on: SR leukemia
U251 CNS = tested on: U251 CNS
OVCAR-4 ovarian = tested on: OVCAR-4 ovarian
EKVX NSCLC = tested on: EKVX NSCLC
MDA-MB-231 breast = tested on: MDA-MB-231 breast
HOP-62 NSCLC = tested on: HOP-62 NSCLC
CAKI-1 renal = tested on: CAKI-1 renal
A549 NSCLC = tested on: A549 NSCLC
PC-3 prostate = tested on: PC-3 prostate
OVCAR-5 ovarian = tested on: OVCAR-5 ovarian
NCI-H226 lung = tested on: NCI-H226 lung
MDA-MB-435 = tested on: MDA-MB-435
NCI-H522 lung = tested on: NCI-H522 lung
DU-145 prostate = tested on: DU-145 prostate
NCI-H23 lung = tested on: NCI-H23 lung
HT29 colon = tested on: HT29 colon
OVCAR-3 ovarian = tested on: OVCAR-3 ovarian
SF-295 CNS = tested on: SF-295 CNS
UO-31 renal = tested on: UO-31 renal
M14 melanoma = tested on: M14 melanoma
HCT-15 colon = tested on: HCT-15 colon
NCI/ADR-RES ovarian = tested on: NCI/ADR-RES ovarian
SK-MEL-5 melanoma = tested on: SK-MEL-5 melanoma
A498 renal = tested on: A498 renal
MOLT-4 leukemia = tested on: MOLT-4 leukemia
SW-620 colon = tested on: SW-620 colon
BT-549 breast = tested on: BT-549 breast
IGROV1 ovarian = tested on: IGROV1 ovarian
786-0 renal = tested on: 786-0 renal
RPMI-8226 leukemia = tested on: RPMI-8226 leukemia
UACC-257 melanoma = tested on: UACC-257 melanoma
LOX IMVI melanoma = tested on: LOX IMVI melanoma
MALME-3M melanoma = tested on: MALME-3M melanoma
KM12 colon = tested on: KM12 colon
UACC-62 melanoma = tested on: UACC-62 melanoma
SF-539 CNS = tested on: SF-539 CNS
LXFL 529 NSCLC = tested on: LXFL 529 NSCLC
KM20L2 colon = tested on: KM20L2 colon
DMS 114 small cell lung = tested on: DMS 114 small cell lung
XF 498 CNS = tested on: XF 498 CNS
DLD-1 colon = tested on: DLD-1 colon
SNB-78 CNS = tested on: SNB-78 CNS
M19-MEL melanoma = tested on: M19-MEL melanoma
HOP-18 NSCLC = tested on: HOP-18 NSCLC
DMS 273 small cell lung = tested on: DMS 273 small cell lung

N/C(=N\Nc1ccc(S(N)(=O)=O)cc1)c1cnccn1
> 100 µM: TGI (HL-60(TB) leukemia) | TGI (RXF 393 renal) | TGI (SK-MEL-2 melanoma) | TGI (OVCAR-8 ovarian) | TGI (TK-10 renal) | TGI (MCF7 breast) | TGI (COLO 205 colon) | TGI (HCC-2998 colon) | TGI (SNB-19 CNS) | TGI (HS 578T breast) | TGI (K-562 leukemia) | TGI (ACHN renal) | TGI (SNB-75 CNS) | TGI (T-47D breast) | TGI (SN12C renal) | TGI (SK-OV-3 ovarian) | TGI (HCT-116 colon) | TGI (NCI-H460 lung) | TGI (SK-MEL-28 melanoma) | TGI (CCRF-CEM leukemia) | TGI (MDA-N) | TGI (HOP-92 NSCLC) | TGI (SF-268 CNS) | TGI (SR leukemia) | TGI (U251 CNS) | TGI (OVCAR-4 ovarian) | TGI (EKVX NSCLC) | TGI (MDA-MB-231 breast) | TGI (HOP-62 NSCLC) | TGI (CAKI-1 renal) | TGI (A549 NSCLC) | TGI (PC-3 prostate) | TGI (OVCAR-5 ovarian) | TGI (NCI-H226 lung) | TGI (MDA-MB-435) | TGI (NCI-H522 lung) | TGI (DU-145 prostate) | TGI (NCI-H23 lung) | TGI (HT29 colon) | TGI (OVCAR-3 ovarian) | TGI (SF-295 CNS) | TGI (UO-31 renal) | TGI (M14 melanoma) | TGI (HCT-15 colon) | TGI (NCI/ADR-RES ovarian) | TGI (SK-MEL-5 melanoma) | TGI (A498 renal) | TGI (MOLT-4 leukemia) | TGI (SW-620 colon) | TGI (BT-549 breast) | TGI (IGROV1 ovarian) | TGI (786-0 renal) | TGI (RPMI-8226 leukemia) | TGI (UACC-257 melanoma) | TGI (LOX IMVI melanoma) | TGI (MALME-3M melanoma) | TGI (KM12 colon) | TGI (UACC-62 melanoma)

Cc1nc2ccc(Cl)cc2c2c1CCN2c1ccccc1
23.6 µM: TGI (UACC-62 melanoma)
24.1 µM: TGI (HOP-92 NSCLC)
34.3 µM: TGI (A498 renal)
23.9 µM: TGI (NCI-H460 lung)
28.5 µM: TGI (SK-MEL-28 melanoma) | TGI (MOLT-4 leukemia)
29.5 µM: TGI (PC-3 prostate)
24.8 µM: TGI (HCC-2998 colon)
22.3 µM: TGI (LOX IMVI melanoma)
31.2 µM: TGI (BT-549 breast)
28.8 µM: TGI (SF-539 CNS)
63.8 µM: TGI (DU-145 prostate)
62.4 µM: TGI (ACHN renal)
20.1 µM: TGI (SF-295 CNS)
23.8 µM: TGI (UO-31 renal)
28.1 µM: TGI (CAKI-1 renal) | TGI (NCI-H522 lung)
17.6 µM: TGI (HCT-116 colon)
23.1 µM: TGI (CCRF-CEM leukemia)
44.1 µM: TGI (OVCAR-3 ovarian)
21.8 µM: TGI (K-562 leukemia)
83.8 µM: TGI (HOP-62 NSCLC)
37.7 µM: TGI (TK-10 renal)
46.6 µM: TGI (A549 NSCLC)
20.7 µM: TGI (SK-MEL-5 melanoma)
26 µM: TGI (NCI/ADR-RES ovarian)
21.3 µM: TGI (MDA-MB-435)
18.6 µM: TGI (RXF 393 renal)
22 µM: TGI (NCI-H226 lung)
36 µM: TGI (MCF7 breast)
35.2 µM: TGI (U251 CNS)
18.1 µM: TGI (COLO 205 colon)
17.2 µM: TGI (SN12C renal)
10.1 µM: TGI (MDA-N)
11.1 µM: TGI (HL-60(TB) leukemia)
29.1 µM: TGI (OVCAR-8 ovarian) | TGI (UACC-257 melanoma)
68.2 µM: TGI (EKVX NSCLC)
78.5 µM: TGI (SNB-19 CNS)
83.9 µM: TGI (SF-268 CNS)
> 100 µM: TGI (SNB-75 CNS) | TGI (OVCAR-4 ovarian) | TGI (HT29 colon) | TGI (IGROV1 ovarian)
55.7 µM: TGI (HS 578T breast)
43.6 µM: TGI (NCI-H23 lung)
95.3 µM: TGI (HCT-15 colon)
32.3 µM: TGI (MALME-3M melanoma)
39.1 µM: TGI (KM12 colon)
31.4 µM: TGI (RPMI-8226 leukemia)
25.2 µM: TGI (786-0 renal)
13.7 µM: TGI (MDA-MB-231 breast)
63.9 µM: TGI (SW-620 colon)
36.3 µM: TGI (T-47D breast) | TGI (SR leukemia)

O=c1cc(-c2ccccn2)[nH]c2ccc(Cl)cc12
97.2 µM: TGI (NCI-H522 lung)
66.7 µM: TGI (SF-268 CNS)
62.5 µM: TGI (MALME-3M melanoma)
> 100 µM: TGI (HL-60(TB) leukemia) | TGI (RXF 393 renal) | TGI (OVCAR-8 ovarian) | TGI (TK-10 renal) | TGI (LXFL 529 NSCLC) | TGI (COLO 205 colon) | TGI (HCC-2998 colon) | TGI (SNB-19 CNS) | TGI (K-562 leukemia) | TGI (ACHN renal) | TGI (SNB-75 CNS) | TGI (KM20L2 colon) | TGI (SN12C renal) | TGI (SK-OV-3 ovarian) | TGI (SF-539 CNS) | TGI (HCT-116 colon) | TGI (NCI-H460 lung) | TGI (SK-MEL-28 melanoma) | TGI (CCRF-CEM leukemia) | TGI (XF 498 CNS) | TGI (HOP-92 NSCLC) | TGI (SR leukemia) | TGI (OVCAR-4 ovarian) | TGI (EKVX NSCLC) | TGI (HOP-62 NSCLC) | TGI (OVCAR-5 ovarian) | TGI (NCI-H226 lung) | TGI (DLD-1 colon) | TGI (NCI-H23 lung) | TGI (HT29 colon) | TGI (OVCAR-3 ovarian) | TGI (SF-295 CNS) | TGI (UO-31 renal) | TGI (M14 melanoma) | TGI (SK-MEL-5 melanoma) | TGI (MOLT-4 leukemia) | TGI (SW-620 colon) | TGI (IGROV1 ovarian) | TGI (SNB-78 CNS) | TGI (786-0 renal) | TGI (RPMI-8226 leukemia) | TGI (UACC-257 melanoma) | TGI (LOX IMVI melanoma) | TGI (KM12 colon) | TGI (UACC-62 melanoma) | TGI (M19-MEL melanoma) | TGI (HOP-18 NSCLC)
49 µM: TGI (DMS 114 small cell lung)
inactive: GI50 (RXF 393 renal) 34 µM | GI50 (KM20L2 colon) 40 µM | GI50 (DMS 114 small cell lung) 13.9 µM | GI50 (HCT-116 colon) 26 µM | GI50 (SF-268 CNS) 23.4 µM | GI50 (NCI-H226 lung) 46.5 µM | GI50 (OVCAR-3 ovarian) 63.7 µM | GI50 (SF-295 CNS) 51.5 µM | GI50 (SK-MEL-5 melanoma) 26.6 µM

CCOC(=O)C1COc2cc(-c3cc(=O)c4ccccc4o3)ccc2O1 (stereo not drawn)
96.9 µM: TGI (XF 498 CNS)
39.3 µM: TGI (HOP-92 NSCLC)
56.3 µM: TGI (HT29 colon)
> 100 µM: TGI (RXF 393 renal) | TGI (DMS 273 small cell lung) | TGI (SK-MEL-2 melanoma) | TGI (TK-10 renal) | TGI (LXFL 529 NSCLC) | TGI (COLO 205 colon) | TGI (HCC-2998 colon) | TGI (SNB-19 CNS) | TGI (K-562 leukemia) | TGI (ACHN renal) | TGI (SNB-75 CNS) | TGI (KM20L2 colon) | TGI (SN12C renal) | TGI (DMS 114 small cell lung) | TGI (SK-OV-3 ovarian) | TGI (HCT-116 colon) | TGI (NCI-H460 lung) | TGI (SK-MEL-28 melanoma) | TGI (CCRF-CEM leukemia) | TGI (SF-268 CNS) | TGI (SR leukemia) | TGI (U251 CNS) | TGI (OVCAR-4 ovarian) | TGI (EKVX NSCLC) | TGI (CAKI-1 renal) | TGI (A549 NSCLC) | TGI (OVCAR-5 ovarian) | TGI (NCI-H522 lung) | TGI (DLD-1 colon) | TGI (NCI-H23 lung) | TGI (OVCAR-3 ovarian) | TGI (SF-295 CNS) | TGI (M14 melanoma) | TGI (SK-MEL-5 melanoma) | TGI (MOLT-4 leukemia) | TGI (SW-620 colon) | TGI (IGROV1 ovarian) | TGI (SNB-78 CNS) | TGI (786-0 renal) | TGI (LOX IMVI melanoma) | TGI (MALME-3M melanoma) | TGI (KM12 colon) | TGI (UACC-62 melanoma) | TGI (M19-MEL melanoma)
96.3 µM: TGI (SF-539 CNS)
93.6 µM: TGI (OVCAR-8 ovarian)
76.8 µM: TGI (UO-31 renal)
